Values quoted from earlier work in patent US8895055B2, “Telodendrimer nanodiscs without apolipoprotein” (The Regents of the University of California, priority 2011, dated 2014).

## C[C@@H]1[C@H](O)[C@@H](C)/C=C/C=C/C=C/C=C/C=C/C=C/C=C/[C@H](O[C@@H]2O[C@H](C)[C@@H](O)[C@H](N)[C@@H]2O)C[C@@H]2O[C@](O)(C[C@@H](O)C[C@@H](O)[C@H](O)CC[C@@H](O)C[C@@H](O)CC(=O)O[C@H]1C)C[C@H](O)[C@H]2C(=O)O [Amphotericin B]
  solubility in water: poorly soluble in water
